The values below are quoted from earlier work in US20120288450A1, “Chewing gum formula for enhancing psycho-spirituality” (priority 2009, published 2012).

The target in data set [1] is T1, Monoamine Oxidase Type-A (MAO-A) (Homo sapiens, UniProt P21397).
T1 sequence (P21397 1-527): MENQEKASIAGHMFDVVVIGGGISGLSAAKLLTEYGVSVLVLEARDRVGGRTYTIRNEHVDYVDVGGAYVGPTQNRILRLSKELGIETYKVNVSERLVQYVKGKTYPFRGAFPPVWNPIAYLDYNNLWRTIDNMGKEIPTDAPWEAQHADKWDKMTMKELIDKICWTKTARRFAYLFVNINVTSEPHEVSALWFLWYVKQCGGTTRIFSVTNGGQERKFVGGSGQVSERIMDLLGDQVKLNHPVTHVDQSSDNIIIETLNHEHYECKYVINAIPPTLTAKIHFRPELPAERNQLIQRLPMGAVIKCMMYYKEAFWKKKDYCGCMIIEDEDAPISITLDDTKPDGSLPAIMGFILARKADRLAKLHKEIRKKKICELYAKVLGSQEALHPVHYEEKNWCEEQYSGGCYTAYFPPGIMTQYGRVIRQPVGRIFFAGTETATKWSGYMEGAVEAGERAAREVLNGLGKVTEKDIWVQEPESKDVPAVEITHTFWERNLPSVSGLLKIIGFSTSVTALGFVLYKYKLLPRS

The target in data set [2] is T2, Monoamine Oxidase Type-B (MAO-B) (Homo sapiens, UniProt P27338).
T2 sequence (P27338 1-520): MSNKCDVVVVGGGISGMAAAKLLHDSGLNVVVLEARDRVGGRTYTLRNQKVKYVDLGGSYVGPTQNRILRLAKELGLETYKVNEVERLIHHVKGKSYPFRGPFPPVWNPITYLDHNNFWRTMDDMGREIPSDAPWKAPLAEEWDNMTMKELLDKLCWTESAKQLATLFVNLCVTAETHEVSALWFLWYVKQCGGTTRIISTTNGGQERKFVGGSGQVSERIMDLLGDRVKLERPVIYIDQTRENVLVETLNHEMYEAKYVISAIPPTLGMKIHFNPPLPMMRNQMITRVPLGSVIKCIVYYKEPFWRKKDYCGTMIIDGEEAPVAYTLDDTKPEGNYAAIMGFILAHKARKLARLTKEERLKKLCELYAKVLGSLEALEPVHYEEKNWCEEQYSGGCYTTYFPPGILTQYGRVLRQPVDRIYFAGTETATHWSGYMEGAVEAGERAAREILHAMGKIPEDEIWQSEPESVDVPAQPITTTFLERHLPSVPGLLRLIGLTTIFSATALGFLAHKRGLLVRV

Data set [3] concerns the target anandamide (CB1) receptor (Homo sapiens, UniProt P21554).
Data set [4] deals with various different bioreceptor sites. Conditions: sites commonly effected by most other psychoactive compounds.
For data set [5] the following is noted: in vivo.
For data set [6] the following is noted: in vivo. This is another data set of the same source.
Data set [7] has as its system dopamine in the nucleus accumbens. Conditions: in vivo.
For data set [8] the following is noted: in vivo. This is another data set of the same source.
For data set [9] the following is noted: mice.
For data set [10] the following is noted: in vivo. The source holds these as a separate data set.
For data set [11] the following is noted: ingested orally.
For data set [12] the following is noted: moisture, light, and radiation.

Entries after “also recorded” stand apart in the source; their conditions may differ.

Sequence of anandamide (CB1) receptor (P21554 whole entry, species assumed): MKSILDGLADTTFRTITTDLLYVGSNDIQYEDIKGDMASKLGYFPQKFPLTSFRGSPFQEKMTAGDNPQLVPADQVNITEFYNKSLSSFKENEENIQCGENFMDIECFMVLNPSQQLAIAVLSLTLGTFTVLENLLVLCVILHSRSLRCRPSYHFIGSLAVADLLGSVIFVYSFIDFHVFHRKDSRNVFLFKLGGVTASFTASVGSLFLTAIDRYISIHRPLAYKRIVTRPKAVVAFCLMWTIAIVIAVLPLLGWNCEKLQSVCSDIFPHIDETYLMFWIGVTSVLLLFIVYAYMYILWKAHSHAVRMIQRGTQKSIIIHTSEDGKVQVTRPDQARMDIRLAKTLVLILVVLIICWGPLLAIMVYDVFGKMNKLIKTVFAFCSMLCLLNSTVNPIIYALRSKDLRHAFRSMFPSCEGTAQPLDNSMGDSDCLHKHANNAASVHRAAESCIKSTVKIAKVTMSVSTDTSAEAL

With `COC(=O)[C@@H]1C[C@H](OC(C)=O)C(=O)[C@H]2[C@@]1(C)CC[C@H]1C(=O)O[C@H](c3ccoc3)C[C@]21C` [Salvinorin A], the solubility in acetone entry is recorded as “highly soluble”. The “inhibition of MAO-A enzyme” value in data set [1] is “does not inhibit”. For the same compound, the “inhibition of MAO-B enzyme” value in data set [2] is reported as “does not inhibit”. For the same compound, the “active binding to the anandamide (CB1) receptor site” value in data set [3] was “nor has it shown any active binding”. Also, the “active binding to the MK-801 receptor site” value in the data set with MK-801 receptor sites was “nor has it shown any active binding”. For the same compound, in [4], the “competitive inhibition of reference target compounds at bioreceptor sites” value was “has not been shown to incur any significant, competitive inhibition”. Further, the toxicity result in data set [5] is given as “almost entirely non-toxic; also recorded: ultra low toxicity”. In addition, the “habit forming / addictiveness” value in data set [6] was “non-habit forming and thus non-addictive”. Also, in data set [7], the “release of dopamine in the nucleus accumbens” value was “does not induce the release of dopamine”. Further, the minimal dose in data set [8] is given as 0.2 mg. For the same compound, the “anxiolytic and anti-depressant findings” value in data set [9] was “anxiolytic and anti-depressant”. In addition, the “effect on cocaine-produced drug seeking” value in data set [10] is “successful in decreasing the effect of cocaine-produced drug seeking”. The “entry into the blood stream” value in data set [11] is listed as “doesn't efficiently enter the blood stream”. For the setting “when still embedded in the leaf”, the “solubility in water and saliva” value was “substantially water- and saliva-insoluble”. The stability of potency entry in [12] is “diminish the potency”.

`COC(=O)[C@@H]1C[C@H](O)C(=O)[C@H]2[C@@]1(C)CC[C@H]1C(=O)O[C@H](c3ccoc3)C[C@]21C` [Salvinorin “B”]: the “psychoactive effect / activity” value in data set [8] was “not known to induce psychoactive effect”.
